Laboratory results from ChEMBL document CHEMBL5154828 (J Med Chem, 2022).

Key:
MCF7 = test: Antiproliferative activity against human MCF7 cells assessed as inhibition of cell growth measured after 6 days by cell titre glo luminescence assay; settings: MCF7, 144 h
Estrogen receptor [1] = target: T1, Estrogen receptor (Homo sapiens, UniProt P03372); test: Induction of ERalpha degradation in human MCF7 cells incubated for 24 hrs by Western blot analysis; format: cell-based
T1 sequence (P03372 whole entry): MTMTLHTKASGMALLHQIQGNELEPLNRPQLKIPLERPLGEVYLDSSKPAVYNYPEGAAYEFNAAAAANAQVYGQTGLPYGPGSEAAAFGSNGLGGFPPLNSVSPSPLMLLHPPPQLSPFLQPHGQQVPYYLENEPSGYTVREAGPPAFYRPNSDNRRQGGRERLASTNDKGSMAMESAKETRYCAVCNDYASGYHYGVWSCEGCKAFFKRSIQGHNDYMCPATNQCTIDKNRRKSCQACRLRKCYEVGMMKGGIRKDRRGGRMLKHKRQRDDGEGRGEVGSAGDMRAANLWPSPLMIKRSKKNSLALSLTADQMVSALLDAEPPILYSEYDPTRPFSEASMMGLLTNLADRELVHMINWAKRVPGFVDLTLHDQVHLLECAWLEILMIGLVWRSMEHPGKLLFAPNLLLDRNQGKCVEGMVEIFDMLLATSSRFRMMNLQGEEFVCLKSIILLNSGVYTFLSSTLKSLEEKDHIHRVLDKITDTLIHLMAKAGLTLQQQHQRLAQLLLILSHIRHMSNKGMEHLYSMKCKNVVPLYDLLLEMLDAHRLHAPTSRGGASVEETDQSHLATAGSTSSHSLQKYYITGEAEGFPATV

[2] = target: Voltage-gated inwardly rectifying potassium channel KCNH2 (Homo sapiens, UniProt Q12809); test: Inhibition of human ERG potassium channel expressed in CHO cells by patch-clamp assay; format: toxicity, cell-based
Estrogen receptor [3] = target: T1, Estrogen receptor; test: Antagonist activity at ERalpha expressed in HEK293/Gal4 cells incubated for 24 hrs in presence of estradiol by luciferase reporter gene assay; format: cell-based

Chain of Voltage-gated inwardly rectifying potassium channel KCNH2 (Q12809 whole entry, the tested form may be a part): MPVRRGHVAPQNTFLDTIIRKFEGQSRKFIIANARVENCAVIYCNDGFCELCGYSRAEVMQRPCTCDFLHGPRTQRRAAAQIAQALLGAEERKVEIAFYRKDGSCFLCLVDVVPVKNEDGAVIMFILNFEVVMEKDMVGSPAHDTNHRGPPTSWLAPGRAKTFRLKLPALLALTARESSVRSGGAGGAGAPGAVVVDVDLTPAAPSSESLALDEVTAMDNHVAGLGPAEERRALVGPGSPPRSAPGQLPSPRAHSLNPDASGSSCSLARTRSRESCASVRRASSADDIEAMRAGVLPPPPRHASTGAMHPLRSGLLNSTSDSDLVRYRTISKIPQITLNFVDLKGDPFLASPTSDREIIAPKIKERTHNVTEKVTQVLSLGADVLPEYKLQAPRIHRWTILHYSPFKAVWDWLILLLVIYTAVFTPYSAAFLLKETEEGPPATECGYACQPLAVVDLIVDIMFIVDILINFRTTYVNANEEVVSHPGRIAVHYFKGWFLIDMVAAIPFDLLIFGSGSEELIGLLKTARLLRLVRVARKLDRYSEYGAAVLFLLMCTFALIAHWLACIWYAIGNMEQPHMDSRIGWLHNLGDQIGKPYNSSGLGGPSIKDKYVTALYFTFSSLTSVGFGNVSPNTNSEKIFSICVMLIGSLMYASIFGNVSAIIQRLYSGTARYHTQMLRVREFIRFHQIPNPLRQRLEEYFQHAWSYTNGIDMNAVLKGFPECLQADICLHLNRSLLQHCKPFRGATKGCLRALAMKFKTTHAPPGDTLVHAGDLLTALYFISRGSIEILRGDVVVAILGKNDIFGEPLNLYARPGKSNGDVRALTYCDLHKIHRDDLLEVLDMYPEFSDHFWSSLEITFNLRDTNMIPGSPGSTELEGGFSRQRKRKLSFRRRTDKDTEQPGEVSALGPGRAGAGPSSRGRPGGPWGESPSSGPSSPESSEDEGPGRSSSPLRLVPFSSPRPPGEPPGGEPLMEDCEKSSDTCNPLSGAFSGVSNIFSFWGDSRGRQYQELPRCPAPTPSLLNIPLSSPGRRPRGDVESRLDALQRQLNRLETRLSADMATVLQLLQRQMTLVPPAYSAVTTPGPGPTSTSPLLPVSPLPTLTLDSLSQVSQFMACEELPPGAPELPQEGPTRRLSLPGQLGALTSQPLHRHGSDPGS

| SMILES | IC50 (MCF7) | EC50 (Estrogen receptor [1]) | IC50 [2] | IC50 (Estrogen receptor [3]) |
| --- | --- | --- | --- | --- |
| CC(F)(F)c1cc(F)ccc1-c1sc2c(ccc3[nH]ncc32)c1Oc1ccc(NC2CN(CCCF)C2)c(C(F)(F)F)c1 | 6.2 nM |  |  |  |
| CC(F)(F)c1cc(F)ccc1-c1sc2c(ccc3[nH]ncc32)c1Oc1c(F)cc(OCCN2CC(CF)C2)cc1F | 15.1 nM |  |  |  |
| CC(F)(F)c1cc(F)ccc1-c1sc2c(ccc3[nH]ncc32)c1Oc1ccc(OCCN2CC(CF)C2)cc1 | 1.1 nM | 0.9 nM |  |  |
| CC(C)(F)c1cc(F)ccc1-c1sc2c(ccc3[nH]ncc32)c1Oc1ccc(NC2CN(CCCF)C2)cc1 |  |  | 6200 nM |  |
| CC(F)(F)c1cc(F)ccc1-c1sc2c(ccc3[nH]ncc32)c1Oc1ccc(OC2CN(CCCF)C2)c(F)c1 | 0.8 nM | 1.3 nM |  | 1 nM |
| FCCCN1CC(Nc2ccc(Oc3c(-c4ccc(F)cc4CC(F)(F)F)sc4c3ccc3[nH]ncc34)cc2)C1 | 0.8 nM | 2.2 nM |  | 1.3 nM |
| COc1cc(Oc2c(-c3ccc(F)cc3CC(F)(F)F)sc3c2ccc2[nH]ncc23)ccc1NC1CN(CCCF)C1 | 1.7 nM | 2.2 nM |  | 1.1 nM |
| COc1cc(Oc2c(-c3cc(F)c(F)cc3C(C)(F)F)sc3c2ccc2[nH]ncc23)ccc1NC1CN(CCCF)C1 | 1.7 nM | 2.6 nM | 15600 nM | 2.5 nM |
| CC(F)(F)c1cc(Cl)ccc1-c1sc2cc(C(=O)O)ccc2c1Oc1ccc(OCCN2CC(CF)C2)cc1 | 4.4 nM | 2.6 nM |  |  |
| CC(c1cc(F)ccc1-c1sc2c(ccc3[nH]ncc32)c1Oc1ccc(OC2CN(CCCF)C2)cc1)C(F)(F)F (stereo not given) | 2.2 nM | 2.5 nM |  |  |
| CC(F)(F)c1cc(F)ccc1-c1sc2c(ccc3[nH]ncc32)c1Oc1ccc(/C=C/C(=O)O)cc1 | 26.6 nM |  |  |  |
| FCC1CN(CCOc2ccc(Oc3c(-c4ccc(C(F)(F)F)cc4F)sc4c3ccc3[nH]ncc34)cc2)C1 | 148 nM |  |  |  |
| FCC1CN(CCOc2ccc(Oc3c(-c4ccc(OC(F)(F)F)cc4F)sc4c3ccc3[nH]ncc34)cc2)C1 | 38.5 nM |  |  |  |
| CC(F)(F)c1cc(F)ccc1-c1sc2c(ccc3[nH]ncc32)c1Oc1ccc(S(=O)(=O)CCN2CC(CF)C2)cc1 | 5.9 nM | > 1000 nM |  |  |
| CC(F)(F)c1cc(F)ccc1-c1sc2cc(B(O)O)ccc2c1Oc1ccc(OCCN2CC(CC#N)C2)cc1 | 2.7 nM |  |  |  |
| CC(F)(F)c1cc(F)ccc1-c1sc2cc(B(O)O)ccc2c1Oc1ccc(OCCN2CC[C@@H](CF)C2)cc1 | 1.5 nM | 2.2 nM |  |  |
| CC(F)(F)c1cc(F)ccc1-c1sc2c(ccc3[nH]ncc32)c1Oc1ccc(OC2CN(CCCF)C2)cc1F | 7.8 nM |  |  |  |
| FCCCN1CC(Oc2ccc(Oc3c(-c4ccc(F)cc4C4(F)CC4)sc4c3ccc3[nH]ncc34)cc2)C1 | 5.3 nM |  |  |  |
| Oc1cccc(-c2sc3c(ccc4[nH]ncc43)c2Oc2ccc(OCCN3CC(CF)C3)cc2)c1 | > 1000 nM |  |  |  |
| CC(F)(F)c1cc(Cl)ccc1-c1sc2c(ccc3[nH]ncc32)c1Oc1ccc(OC[C@H]2CCCN2CCCF)cc1 | 8.3 nM | > 1000 nM |  |  |
| CC(F)(F)c1cc(F)ccc1-c1sc2c(ccc3[nH]ncc32)c1Oc1ccc(NC2CN(CCCF)C2)c(F)c1 | 0.8 nM | 1.3 nM | 27500 nM | 1.1 nM |
| Cc1cc(F)cc(C)c1-c1sc2c(ccc3[nH]ncc32)c1Oc1ccc(OCCN2CC(CF)C2)cc1 | 27.3 nM |  |  |  |
| CC(F)(c1cc(F)ccc1-c1sc2c(ccc3[nH]ncc32)c1Oc1ccc(NC2CN(CCCF)C2)cc1)C(F)(F)F (stereo not given) | 1.7 nM | 6.6 nM |  |  |
| CC(F)(F)c1cc(F)ccc1-c1sc2c(ccc3[nH]ncc32)c1Oc1ccc(COCCN2CC(CF)C2)cc1 | 4.7 nM | > 1000 nM |  |  |
| FCC1CN(CCOc2ccc(Oc3c(-c4ccc(F)cc4C4CC4)sc4c3ccc3[nH]ncc34)cc2)C1 | 8.8 nM |  |  |  |
| CC(F)(F)c1cc(Cl)ccc1-c1sc2c(ccc3[nH]ncc32)c1Oc1ccc(O[C@@H]2CCN(CCCF)C2)cc1 | 2.6 nM | 0.7 nM |  |  |
| CC(F)(F)c1cc(Cl)ccc1-c1sc2c(ccc3[nH]ncc32)c1Oc1ccc(N[C@@H]2CCN(CCCF)C2)cc1 | 0.6 nM | 1 nM |  |  |

| SMILES | IC50 (MCF7) | EC50 (Estrogen receptor [1]) | IC50 [2] | IC50 (Estrogen receptor [3]) |
| --- | --- | --- | --- | --- |
| CC(F)(F)c1cc(Cl)ccc1-c1sc2c(ccc3[nH]ncc32)c1Oc1ccc(S(=O)(=O)C2CN(CCCF)C2)cc1 | 33.9 nM |  |  |  |
| CC(F)(F)c1cc(Cl)ccc1-c1sc2cc(C(=O)O)ccc2c1Oc1ccc(NC2CN(CCCF)C2)cc1 | 5.9 nM | 13.1 nM |  |  |
| FCCCN1CC(Oc2ccc(Oc3c(-c4ccc(F)cc4CC(F)(F)F)sc4c3ccc3[nH]ncc34)cc2F)C1 |  |  | > 40000 nM |  |
| CC(C)(F)c1cc(F)ccc1-c1sc2c(ccc3[nH]ncc32)c1Oc1ccc(OC2CN(CCCF)C2)c(F)c1 |  |  | > 40000 nM |  |
| Cc1cc(C(F)(F)F)ncc1-c1sc2c(ccc3[nH]ncc32)c1Oc1ccc(OCCN2CC(CF)C2)cc1 | 623 nM |  |  |  |
| CC(F)(F)c1cc(Cl)ccc1-c1sc2cc(C(=O)O)ccc2c1Oc1ccc(OC2CN(CCCF)C2)cc1 | 34.7 nM | 3.9 nM |  |  |
| COc1cc(Oc2c(-c3ccc(F)cc3CC(F)(F)F)sc3c2ccc2[nH]ncc23)ccc1OC1CN(CCCF)C1 | 0.6 nM | 1.8 nM |  | 0.9 nM |
| CC(F)(F)c1cc(F)ccc1-c1sc2c(ccc3[nH]ncc32)c1Oc1ccc(OCCN2CC(CC#N)C2)cc1 | 2.4 nM | 0.4 nM |  |  |
| CC(F)(F)c1cc(F)ccc1-c1sc2cc(B(O)O)ccc2c1Oc1ccc(OCCN2CC(CF)C2)cc1 | 1.9 nM | 1.2 nM |  |  |
| CC(F)(F)c1cc(F)ccc1-c1sc2c(ccc3[nH]ncc32)c1Oc1ccc(/C=C/CN2CC(CF)C2)cc1 | 7.9 nM |  |  |  |
| COc1cc(Oc2c(-c3ccc(F)cc3C(C)(F)F)sc3c2ccc2[nH]ncc23)ccc1OC1CN(CCCF)C1 | 0.9 nM | 0.4 nM | > 40000 nM | 0.6 nM |
| CC(C)(c1cc(F)ccc1-c1sc2c(ccc3[nH]ncc32)c1Oc1ccc(NC2CN(CCCF)C2)cc1)C(F)(F)F | 5.1 nM |  |  |  |
| Cc1cc(Cl)cc(C)c1-c1sc2c(ccc3[nH]ncc32)c1Oc1ccc(OCCN2CC(CF)C2)cc1 | 29.5 nM |  |  |  |
| CC(F)(F)c1cc(Cl)ccc1-c1sc2c(ccc3[nH]ncc32)c1Oc1ccc(OC2CN(CCCC#N)C2)cc1 | 81.4 nM |  |  |  |
| CC(F)(F)c1cc(F)c(F)cc1-c1sc2c(ccc3[nH]ncc32)c1Oc1ccc(OC2CN(CCCF)C2)cc1 | 1.6 nM | 3.4 nM |  | 2.5 nM |
| CC(F)(F)c1cc(F)ccc1-c1sc2cc3[nH]ncc3cc2c1Oc1ccc(/C=C/C(=O)O)cc1 | 483 nM |  |  |  |
| CC(F)(F)c1cc(F)ccc1-c1sc2c(ccc3[nH]ncc32)c1Oc1ccc(OCCN2CC(CF)C2)cc1F | 3.3 nM |  |  |  |
| CC(F)(F)c1cc(F)c(F)cc1-c1sc2c(ccc3[nH]ncc32)c1Oc1ccc(NC2CN(CCCF)C2)cc1 |  |  | 7400 nM |  |
| CC(F)(F)c1cc(F)ccc1-c1sc2c(ccc3[nH]ncc32)c1Oc1ccc(CCN2CC(CF)C2)cc1 | 14.7 nM |  |  |  |
| CC(F)(F)c1cc(F)ccc1-c1sc2cc(B(O)O)ccc2c1Oc1ccc(/C=C/C(=O)O)cc1 | 23.9 nM |  |  |  |
| CC(F)(F)c1cc(Cl)ccc1-c1sc2cc(C(=O)O)ccc2c1Oc1ccc(O[C@@H]2CCN(CCCF)C2)cc1 | 4.2 nM | 1 nM |  |  |
| CC(F)(F)c1cc(F)ccc1-c1sc2cc(B(O)O)ccc2c1Oc1ccc(OCCN2CCC(F)CC2)cc1 | 19.4 nM |  |  |  |
| CC(F)(F)c1cc(F)ccc1-c1sc2c(ccc3[nH]ncc32)c1Oc1ccc(OCCN2CC3C(C2)C3(F)F)cc1 (stereo not given) | 7.6 nM | > 1000 nM |  |  |
| COc1cc(Oc2c(-c3cc(F)c(F)cc3C(C)(F)F)sc3c2ccc2[nH]ncc23)ccc1OC1CN(CCCF)C1 | 1.2 nM | 3 nM |  | 1.4 nM |
| COc1cc(Oc2c(-c3ccc(F)cc3C(C)(F)F)sc3c2ccc2[nH]ncc23)ccc1NC1CN(CCCF)C1 |  |  | 11500 nM |  |
| CC(F)(F)c1cc(F)ccc1-c1sc2c(ccc3[nH]ncc32)c1-c1ccc(OCCN2CC(CF)C2)cc1 | > 1000 nM |  |  |  |
